Publication PMC5516028, “Molecular tools for GABAA receptors: High affinity ligands for β1-containing subtypes” (Scientific Reports, 2017)
Several values for one entry are separate records, joined by “and”; a condition that tells them apart may be missing. Equal entries are not always repeated. Where two headings read alike, the source gives them in different places. One block for each compound: values may come before it.

Tests used:
Format in all cases: cell-based
[1] = target: T1, α1β1 GABAA receptors (Rattus norvegicus, UniProt P15431+P62813); experiment: Two electrode voltage clamp in Xenopus laevis oocytes, α1β1; details: for activity at 0.3 µM: 300 nM
T1 construct: expressed in transfected cells; host or cells: Xenopus laevis oocytes, mRNA injected
Excerpt: (§1) cDNA’s of rat GABAA receptor subunits α1, α4, β1, β2, β3 and γ2S were cloned as described. cDNAs of the rat subunits α2, α3 and α5 were gifts from P. Malherbe, that of α6 and γ1 were gifts of P. Seeburg and that of δ was a gift of C. Czajkowski. The mutants were constructed using the Q5 Site-Directed Mutagenesis Kit (New England Biolabs) following manufacturer’s instruction. We used the wild-type rat β3-pCI vector as template and the primers […] and […] resulting in a substitution of amino acid N41 (AAC) to R (AGG). We used the wild-type rat β1-pCI vector as template and the primers […] and […] resulting in a substitution of amino acid R41 (CGG) to N (AAC). The mutated subunits were confirmed by sequencing.
(§2) In vitro transcription of mRNA was based on the cDNA expression vectors encoding for rat GABAA receptor subunits α1–6, β1-3, γ1,2, δ and the two β mutants (β1R41N and β3N41R)[40]. After linearizing the cDNA vectors with appropriate restriction endonucleases, the cDNA was purified and concentrated with the DNA Clean and Contentrator ^TM Kit (Zymoresearch, Catalog No. D4005). Capped transcripts of the purified cDNA were produced using the mMESSAGE mMACHINE® T7 transcription kit (Ambion, TX, USA) and polyadenylated using the Ambion PolyA tailing kit (Ambion). After transcription and polyadenylation the RNA was purified with the MEGAclear ^TM Kit (Ambion, Catalog No. AM1908). The final RNA concentration was measured on NanoDrop® ND-1000 and finally diluted and stored in diethylpyrocarbonate-treated water at −80 °C. For the microinjection, the RNA of αβ receptor combinations was mixed at 1:1 ratio (which leads to αβ receptors that consist of predominantly 3 beta and 2 alpha subunits[27]), for αkβlγm (k = 1–3, l = 1, 3, m = 1, 2) receptors at 1:1:5 ratio, for αkβ3γ2 (k = 4–6) and αkβlδ (k = 1, 4 and 6, l = 1, 3) receptor combinations at 3:1:5 ratio.
(§3) Mature female Xenopus laevis (Nasco, WI) were anesthetized in a bath of ice-cold 0.17% Tricain (Ethyl-m-aminobenzoate, Sigma, MO) before decapitation in full accordance with all rules of the Austrian animal protection law (see http://www.ris.bka.gv.at/Dokumente/BgblAuth/BGBLA_2012_I_114/BGBLA_2012_I_114.pdf) and the Austrian animal experiment by-laws (see https://www.ris.bka.gv.at/Dokumente/BgblAuth/BGBLA_2012_II_522/BGBLA_2012_II_522.pdf) which implement the European Directive 2010/63/EU (see http://eur-lex.europa.eu/LexUriServ/LexUriServ.do?uri=OJ:L:2010:276:0033:0079:en:PDF) into the Austrian law (all information accessed on July 27, 2016). The frog’s ovaries were transferred to ND96 medium (96 mM NaCl, 2 mM KCl, 1 mM MgCl2, 5 mM HEPES; pH 7.5). Stage 5–6 oocytes with the follicle cell layer around them were roughly dissected with forceps into packages of 10–15 cells and washed in Ca^2+-free ND96 medium. Cells were then digested with collagenase (type IA, Sigma, NO, 1 mg/mL ND96) at 18 °C shaking at 30 rpm for 30–60 minutes and gently defolliculated with the aid of a glass pipette with appropriate tip diameter and a platinum loop. Defolliculated cells were stored at 18 °C for at least 6 hours in ND96 solution containing penicillin G (10000 IU/100 mL) and streptomycin (10 mg/100 mL) in order to preselect and exclude damaged cells from further treatment. Healthy defolliculated oocytes were injected with an aqueous solution of mRNA. A total of 4.5 ng of mRNA per oocyte was injected with a Nanoject II (Drummond). After injection of mRNA, oocytes were incubated at 18 °C (ND96 + antibiotic) for 2–3 days for αβ receptors and for 3–4 days for αβγ or αβδ receptors before recording. When cells were measured at later time points, oocytes were stored at +4 °C instead of 18 °C.
(§4) For electrophysiological recordings, oocytes were placed on a nylon-grid in a bath of Ca^2+-containing NDE solution medium [96 mM NaCl, 5 mM HEPES-NaOH (pH 7.5), 2 mM KCl, 1 mM MgCl2, 1.8 mM CaCl2].

[2] = target: T2, α1β2 GABAA receptors (Rattus norvegicus, UniProt P62813+P63138); experiment: Two electrode voltage clamp in Xenopus laevis oocytes, α1β2
T2 construct: expressed in transfected cells; host or cells: Xenopus laevis oocytes, mRNA injected
Excerpt: as §1, §2, §3, §4

[3] = target: T3, α1β3 GABAA receptors (Rattus norvegicus, UniProt P62813+P63079); experiment: Two electrode voltage clamp in Xenopus laevis oocytes, α1β3; details: for activity at 0.01 µM: 10 nM; for Hill slope (nH) / EC50: α1β3
T3 construct: expressed in transfected cells; host or cells: Xenopus laevis oocytes, mRNA injected
Excerpt: as §1, §2, §3, §4

[4] = target: T4, α1β1R41N GABAA receptors (Rattus norvegicus, UniProt P15431+P62813, R66N); experiment: Two electrode voltage clamp in Xenopus laevis oocytes, mutant α1β1R41N; details: for current as % of control at 0.1 µM: 100nM; for current as % of control at 0.1 µM / current as % of control at 0.3 µM / current as % of control at 1 µM / current as % of control at 3 µM / current as % of control at 10 µM / current as % of control at 30 µM: read-out: % of control current at EC3-5; for current as % of control at 0.3 µM: 300nM
T4 construct: expressed in transfected cells; host or cells: Xenopus laevis oocytes, mRNA injected
Excerpt: as §1, §2, §3, §4

[5] = target: T5, α1β3N41R GABAA receptors (Rattus norvegicus, UniProt P62813+P63079, N66R); experiment: Two electrode voltage clamp in Xenopus laevis oocytes, mutant α1β3N41R; details: co-applied with GABA EC3-5, read-out: EC50 values for the mutated receptors
T5 construct: expressed in transfected cells; host or cells: Xenopus laevis oocytes, mRNA injected
Excerpt: as §1, §2, §3, §4

[6] = target: T6, α2β3γ2 GABAA receptors (Rattus norvegicus, UniProt P23576+P63079); experiment: Two electrode voltage clamp in Xenopus laevis oocytes, α2β3γ2
T6 construct: expressed in transfected cells; host or cells: Xenopus laevis oocytes, mRNA injected
Excerpt: as §1, §2, §3, §4

[7] = target: T7, α5β3 GABAA receptors (Rattus norvegicus, UniProt P19969+P63079); experiment: Two electrode voltage clamp in Xenopus laevis oocytes, α5β3
T7 construct: expressed in transfected cells; host or cells: Xenopus laevis oocytes, mRNA injected
Excerpt: as §1, §2, §3, §4

[8] = read-out: efficacy, % of control current (GABA EC3-5 = 100%), α1β1
[9] = read-out: efficacy, % of control current (GABA EC3-5 = 100%), α1β3
[10] = co-applied with GABA EC3-5, read-out: EC50

T6 sequence (P23576 29-451): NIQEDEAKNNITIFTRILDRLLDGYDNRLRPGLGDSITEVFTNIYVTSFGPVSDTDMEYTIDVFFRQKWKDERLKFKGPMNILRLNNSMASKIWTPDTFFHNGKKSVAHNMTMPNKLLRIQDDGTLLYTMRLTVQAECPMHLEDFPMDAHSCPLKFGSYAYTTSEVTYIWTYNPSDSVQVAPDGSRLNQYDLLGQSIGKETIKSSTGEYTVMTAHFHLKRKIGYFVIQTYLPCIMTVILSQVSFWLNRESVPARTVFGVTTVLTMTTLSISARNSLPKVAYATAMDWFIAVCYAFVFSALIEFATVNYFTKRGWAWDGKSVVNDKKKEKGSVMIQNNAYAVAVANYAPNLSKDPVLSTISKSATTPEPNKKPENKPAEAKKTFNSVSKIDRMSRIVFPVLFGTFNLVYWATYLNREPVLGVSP
T6 sequence (P63079 26-473): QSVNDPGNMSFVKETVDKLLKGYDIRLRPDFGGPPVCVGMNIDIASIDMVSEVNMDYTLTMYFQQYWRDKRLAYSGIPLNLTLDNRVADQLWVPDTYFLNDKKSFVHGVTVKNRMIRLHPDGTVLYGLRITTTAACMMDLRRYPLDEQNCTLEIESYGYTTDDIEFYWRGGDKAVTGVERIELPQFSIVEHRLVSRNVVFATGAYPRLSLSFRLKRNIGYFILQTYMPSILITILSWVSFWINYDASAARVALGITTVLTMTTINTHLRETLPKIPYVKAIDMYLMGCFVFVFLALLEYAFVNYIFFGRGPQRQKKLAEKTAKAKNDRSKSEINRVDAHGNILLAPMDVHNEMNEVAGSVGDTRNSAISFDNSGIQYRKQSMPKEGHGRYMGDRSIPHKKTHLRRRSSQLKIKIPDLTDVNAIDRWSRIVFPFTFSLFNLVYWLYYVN
T6 sequence (P18508 39-466 partner): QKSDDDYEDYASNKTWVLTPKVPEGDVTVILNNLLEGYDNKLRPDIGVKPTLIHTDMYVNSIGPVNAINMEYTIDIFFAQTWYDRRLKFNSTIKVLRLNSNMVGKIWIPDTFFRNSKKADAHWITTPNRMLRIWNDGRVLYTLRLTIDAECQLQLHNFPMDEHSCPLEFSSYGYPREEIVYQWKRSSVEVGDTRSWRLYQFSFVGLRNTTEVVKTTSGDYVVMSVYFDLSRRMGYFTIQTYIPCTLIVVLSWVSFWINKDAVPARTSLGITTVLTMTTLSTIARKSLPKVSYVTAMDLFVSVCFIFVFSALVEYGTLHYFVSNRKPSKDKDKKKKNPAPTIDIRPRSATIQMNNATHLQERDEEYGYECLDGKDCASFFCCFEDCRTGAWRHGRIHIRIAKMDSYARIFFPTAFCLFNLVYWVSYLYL
T3 sequence (P62813 28-455): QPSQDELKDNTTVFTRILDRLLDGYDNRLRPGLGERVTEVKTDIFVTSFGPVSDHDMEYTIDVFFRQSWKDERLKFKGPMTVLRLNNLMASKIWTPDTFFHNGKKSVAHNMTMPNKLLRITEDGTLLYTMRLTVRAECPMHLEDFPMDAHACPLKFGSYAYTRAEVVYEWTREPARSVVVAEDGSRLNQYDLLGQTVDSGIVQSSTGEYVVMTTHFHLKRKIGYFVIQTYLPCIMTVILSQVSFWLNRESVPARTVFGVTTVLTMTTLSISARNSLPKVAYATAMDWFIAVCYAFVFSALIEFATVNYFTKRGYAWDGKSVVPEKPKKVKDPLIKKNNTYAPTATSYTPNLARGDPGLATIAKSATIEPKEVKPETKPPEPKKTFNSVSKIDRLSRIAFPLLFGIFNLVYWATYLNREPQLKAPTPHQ
T3 sequence (P63079 26-473): as the sequence (P63079 26-473) above
T4 sequence (P62813 28-455): as the sequence (P62813 28-455) above
T4 sequence (P15431 26-474 R66N): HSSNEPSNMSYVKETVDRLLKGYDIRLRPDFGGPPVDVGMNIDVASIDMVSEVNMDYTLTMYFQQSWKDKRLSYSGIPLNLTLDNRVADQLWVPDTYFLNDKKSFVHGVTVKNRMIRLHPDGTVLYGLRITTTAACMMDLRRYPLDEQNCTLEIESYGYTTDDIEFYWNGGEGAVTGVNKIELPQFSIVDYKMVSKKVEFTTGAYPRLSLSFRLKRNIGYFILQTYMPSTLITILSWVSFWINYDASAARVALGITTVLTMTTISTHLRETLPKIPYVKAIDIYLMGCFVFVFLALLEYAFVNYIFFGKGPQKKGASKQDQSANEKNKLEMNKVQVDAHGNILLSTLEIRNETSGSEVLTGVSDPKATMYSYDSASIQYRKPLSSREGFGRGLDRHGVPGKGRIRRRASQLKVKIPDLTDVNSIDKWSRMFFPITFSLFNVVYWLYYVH
T1 sequence (P62813 28-455): as the sequence (P62813 28-455) above
T1 sequence (P15431 26-474): as the sequence (P15431 26-474 R66N) above, with N41R counted along it
T2 sequence (P62813 28-455): as the sequence (P62813 28-455) above
T2 sequence (P63138 25-474 limits assumed): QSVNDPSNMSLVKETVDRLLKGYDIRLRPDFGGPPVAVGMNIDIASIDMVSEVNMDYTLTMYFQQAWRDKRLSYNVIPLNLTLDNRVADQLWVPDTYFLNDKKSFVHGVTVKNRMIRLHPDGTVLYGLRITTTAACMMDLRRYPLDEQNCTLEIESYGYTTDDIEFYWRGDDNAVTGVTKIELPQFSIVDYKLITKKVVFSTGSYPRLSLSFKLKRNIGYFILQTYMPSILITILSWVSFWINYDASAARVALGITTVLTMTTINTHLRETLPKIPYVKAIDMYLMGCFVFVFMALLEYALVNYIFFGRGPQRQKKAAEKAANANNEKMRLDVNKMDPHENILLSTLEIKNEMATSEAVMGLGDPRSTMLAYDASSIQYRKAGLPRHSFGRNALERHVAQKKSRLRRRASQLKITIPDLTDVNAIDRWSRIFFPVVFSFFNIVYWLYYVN
T7 sequence (P19969 32-464 limits assumed): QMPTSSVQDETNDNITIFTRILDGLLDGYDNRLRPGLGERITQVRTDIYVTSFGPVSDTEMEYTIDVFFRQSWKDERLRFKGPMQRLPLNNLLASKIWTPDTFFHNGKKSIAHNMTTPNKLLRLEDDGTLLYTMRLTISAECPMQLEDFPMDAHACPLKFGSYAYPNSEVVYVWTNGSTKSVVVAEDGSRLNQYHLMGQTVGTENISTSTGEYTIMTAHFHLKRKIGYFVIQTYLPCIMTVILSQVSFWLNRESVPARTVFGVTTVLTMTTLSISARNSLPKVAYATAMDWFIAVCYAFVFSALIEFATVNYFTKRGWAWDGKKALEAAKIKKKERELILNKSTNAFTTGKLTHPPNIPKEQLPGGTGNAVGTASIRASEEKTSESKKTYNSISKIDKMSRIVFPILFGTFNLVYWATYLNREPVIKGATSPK
T7 sequence (P63079 26-473): as the sequence (P63079 26-473) above
T5 sequence (P62813 28-455): as the sequence (P62813 28-455) above
T5 sequence (P63079 26-473 N66R): as the sequence (P63079 26-473) above, with N41R counted along it

- activity at 0.001 µM ([1]; read-out: efficacy, % of control current (GABA EC3-5 = 100%), α1β1, 1 nM): 102 ± 1.7%
- activity at 0.003 µM ([1]; read-out: efficacy, % of control current (GABA EC3-5 = 100%), α1β1, 3 nM): 100.5 ± 0.5%
- activity at 0.03 µM ([1]; read-out: efficacy, % of control current (GABA EC3-5 = 100%), α1β1, 30 nM): 138 ± 13.3%
- activity at 0.3 µM [1, 8]: 292 ± 24.5%
- activity at 30 µM ([1]; read-out: efficacy, % of control current (GABA EC3-5 = 100%), α1β1, 30 µM): 174 ± 34.2%
- Hill slope (nH) ([1]; α1β1): 1.3±0.4
- EC50 ([1]; α1β1 (α1+/β1− interface), read-out: EC50): 130 nM
- EC50 [2]: 1150 nM
- activity at 0.001 µM ([2]; read-out: efficacy, % of control current (GABA EC3-5 = 100%), α1β2, 1 nM): 100%
- activity at 10 µM ([2]; read-out: efficacy, % of control current (GABA EC3-5 = 100%), α1β2, 10 µM): 644 ± 57%
- Hill slope (nH) ([2]; α1β2): 1.1±0.3
- activity at 0.01 µM [3, 9]: 106 ± 1.6%
- activity at 3 µM [3, 9]: 839 ± 105%
- Hill slope (nH) [3]: 1.5±0.5
- EC50 [3, 10]: 1840 nM
- current as % of control at 0.1 µM [4]: 80 ± 10%
- current as % of control at 0.3 µM [4]: 100 ± 10%
- current as % of control at 1 µM [4]: 140 ± 16%
- current as % of control at 3 µM [4]: 195 ± 20%
- current as % of control at 10 µM [4]: 205 ± 20%
- current as % of control at 30 µM [4]: 150 ± 10%
- EC50 ([4]; co-applied with GABA EC3-5): 800 nM
- EC50 [5]: 980 nM
SMILES: COc1ccc(-n2nc3c4cc(Cl)ccc4[nH]cc-3c2=O)cc1 [Compound 1, 8-Chloro-2-(4-methoxyphenyl)-2H-pyrazolo[4,3-c]quinolin-3(5H)-one]

- activity at 0.3 µM [1, 8]: 194 ± 23.3%
- Hill slope (nH) ([1]; α1β1): 1.0±0.4
- EC50 ([1]; α1β1, co-applied with GABA EC3-5, read-out: EC50): 770 nM
- EC50 ([1]; α1β1, log of EC50, sign as printed, read-out: LogEC50 (converted)): 759 nM
- EC50 [2]: 4310 nM
- activity at 0.1 µM ([2]; read-out: efficacy, % of control current (GABA EC3-5 = 100%), α1β2, 100 nM): 105 ± 1.4%
- activity at 1 µM ([2]; read-out: efficacy, % of control current (GABA EC3-5 = 100%), α1β2, 1 µM): 134 ± 8.2%
- Hill slope (nH) ([2]; α1β2): 2.0±0.9
- activity at 0.001 µM ([3]; read-out: efficacy, % of control current (GABA EC3-5 = 100%), α1β3, 1 nM): 100.1 ± 0.1%
- activity at 0.003 µM ([3]; read-out: efficacy, % of control current (GABA EC3-5 = 100%), α1β3, 3 nM): 100.1 ± 0.1%
- activity at 0.01 µM [3, 9]: 100.7 ± 0.5%
- activity at 0.1 µM ([3]; read-out: efficacy, % of control current (GABA EC3-5 = 100%), α1β3, 100 nM): 109 ± 2.2%
- activity at 0.3 µM ([3]; read-out: efficacy, % of control current (GABA EC3-5 = 100%), α1β3, 300 nM): 122 ± 5.4%
- activity at 1 µM ([3]; read-out: efficacy, % of control current (GABA EC3-5 = 100%), α1β3, 1 µM): 151 ± 11.5%
- activity at 3 µM [3, 9]: 276 ± 41.7%
- activity at 10 µM ([3]; read-out: efficacy, % of control current (GABA EC3-5 = 100%), α1β3, 10 µM): 372 ± 40.1%
- Hill slope (nH) [3]: 1.9±0.6
- EC50 [3, 10]: 2390 nM
- EC50 ([3]; log of EC50, sign as printed, read-out: LogEC50 (converted)): 2400 nM and 2510 nM
- current as % of control at 0.1 µM [4]: 70 ± 5%
- current as % of control at 0.3 µM [4]: 62 ± 8%
- current as % of control at 1 µM [4]: 62 ± 8%
- current as % of control at 3 µM [4]: 60 ± 9%
- current as % of control at 10 µM [4]: 60 ± 10%
- current as % of control at 30 µM [4]: 60 ± 8%
- EC50 [5]: 3440 nM
- EC50 [6]: 5500 nM
- activity at 0.001 µM ([6]; read-out: efficacy, % of control current (GABA EC3-5 = 100%), α2β3γ2, 1 nM): 100%
- activity at 0.01 µM ([6]; read-out: efficacy, % of control current (GABA EC3-5 = 100%), α2β3γ2, 10 nM): 108 ± 4.2%
- activity at 0.1 µM ([6]; read-out: efficacy, % of control current (GABA EC3-5 = 100%), α2β3γ2, 100 nM): 111 ± 2.3%
- activity at 0.3 µM ([6]; read-out: efficacy, % of control current (GABA EC3-5 = 100%), α2β3γ2, 300 nM): 134%
- activity at 1 µM ([6]; read-out: efficacy, % of control current (GABA EC3-5 = 100%), α2β3γ2, 1 µM): 137 ± 5.5%
- activity at 10 µM ([6]; read-out: efficacy, % of control current (GABA EC3-5 = 100%), α2β3γ2, 10 µM): 470 ± 50%
- activity at 30 µM ([6]; read-out: efficacy, % of control current (GABA EC3-5 = 100%), α2β3γ2, 30 µM): 580%
- EC50 [7]: 6100 nM
- activity at 0.001 µM ([7]; read-out: efficacy, % of control current (GABA EC3-5 = 100%), α5β3, 1 nM): 97.3 ± 1.2%
- activity at 0.1 µM ([7]; read-out: efficacy, % of control current (GABA EC3-5 = 100%), α5β3, 100 nM): 110 ± 3.6%
- activity at 0.3 µM ([7]; read-out: efficacy, % of control current (GABA EC3-5 = 100%), α5β3, 300 nM): 108 ± 6.3%
- activity at 1 µM ([7]; read-out: efficacy, % of control current (GABA EC3-5 = 100%), α5β3, 1 µM): 132 ± 3.8%
- activity at 3 µM ([7]; read-out: efficacy, % of control current (GABA EC3-5 = 100%), α5β3, 3 µM): 190 ± 22.9%
- activity at 30 µM ([7]; read-out: efficacy, % of control current (GABA EC3-5 = 100%), α5β3, 30 µM): 232 ± 21.5%
SMILES: Cc1ccc(-n2nc3c4cc(Cl)ccc4[nH]cc-3c2=O)cc1 [Compound 2, 8-Chloro-2-(4-methylphenyl)-2H-pyrazolo[4,3-c]quinolin-3(5H)-one]
